One substance from patent US4148919A, “7-Amino-6,7-dihydro [5H]benzocycloheptene derivatives” (Roussel Uclaf, priority 1975, dated 1979) can be followed below.

The term IC50 denotes the concentration at which inhibition is half-maximal.

The subject of data set [1] is mice. Kind of data set: Potentialization of effects of monoamine oxidase inhibitor (nialamide hyperactivity, actimetry). The note with it: 30 minutes after nialamide 100 mg/kg i.p., actimetry for 6 hours. Type of data set: in vivo. On the set-up: key: ++: expressed in increasing number of + signs for a determined dose in mg/kg; +++: expressed in increasing number of + signs for a determined dose in mg/kg. How it is done:
The administration of a monoamine oxidase inhibitor to mice induces a hyperactive movement of the animals which is able to be potentialized by an antidepressant. Using the procedure of Carlsson et al. [Brain Research, Vol. 12 (1969), p. 456], a dose of 100 mg/kg of nialamide was intraperitoneally administered to mice 30 minutes before the intraperitoneal administration of the tested product and the values of actimetric measurements were recorded every 30 minutes for 6 hours. Potentiation of the effects of nialamide for the tested product was expressed in increasing number of + signs for a determined dose in mg/kg.

In data set [2] the test system is serotonine (5HT) uptake. The experiment in a line: Inhibition of Serotonine uptake in vitro (impure brain synaptosomes). Type of data set: biochemical. The settings on record: female rat brain synaptosomes, 37° C. 5 minutes, 14C-5HT 10^-7 M. The procedure:
(§1) The inhibition of serotonine (5HT) uptake was measured in impure synaptosomes prepared from the entire brain of a female rat 19 to 21 days old using the technique of Kannengiesser et al. [Biochemical Pharmacology,Vol. 22, (1973) p. 73].

Data set [3] relates to mice. The experiment in a line: Potentiation of effects of L-dopa in iproniazide-pretreated mice. Type of data set: in vivo. The settings on record: male mice, intraperitoneal, iproniazide 75 mg/kg 18 hours before, L-dopa 100 mg/kg i.p. one hour after product; 60 min. How it is done: The administration of L-dopa to mice pretreated 18 hours previously with iproniazide produced certain number of symptoms; muscular hypertonicity, hyperactivity, agitation, crying, aggressiveness, salivation and exophthalmy. The intensity of these effects is potentiated by administration of an antidepressant one hour before the administration of L-dopa. Male mices received intraperitoneally 75 mg/kg of iproniazide 18 hours before the start of the test and the tested product was intraperitoneally administered in aqueous solution in increasing doses. One hour later, L-dopa was intraperitoneally administered at a dose of 100 mg/kg and the different symptoms were observed 15 and 30 minutes later. They were evaluated on a scale of 0 to 3 for each animal and the totals for each dose were determined. The ED50 dose which potentiates by 50% the L-dopa effects was determined to be about 20 mg/kg for the product of Example 1.

In data set [4] the test system is mice. Kind of data set: Acute toxicity. Type of data set: in vivo. The settings on record: intraperitoneal administration, determined 48 hours later. How it is done: The DL50 dose which kills 50% of mice after intraperitoneal administration of the tested compound was determined 48 hours later and the DL50 for the compound of Example 1 was about 75 mg/kg.
In data set [5] the test system is serotonine (5HT) uptake. Kind of data set: Inhibition of Serotonine uptake in vivo (synaptosomes from treated rats). On the set-up: species or system rat; key: the activity was expressed in increasing number of + signs. The settings on record: 20 mg/kg intraperitoneal, female rats, brain removed after 30 minutes. How it is done: as §1
The tested products were intraperitoneally administered to groups of female rats 19 to 21 days old at doses of 5 to 20 mg/kg. After 30 minutes, the brain was removed and synaptosomes were prepared and placed in an incubator in the presence of 14 C-5HT as indicated in the previous test.

In the case of “7-amino-6,7-dihydro [5H] benzocycloheptene-hydrochloride [Example 1]”, the “Potentiation of the effects of nialamide” value with mice [1] (5 mg/kg intraperitoneal) is given as “++”; in the data set with mice [1] (20 mg/kg intraperitoneal) it was “+++”. The substance further gave an IC50 in the data set on serotonine (5HT) uptake [2] of around 2400 nM. Besides, the “ED50 dose which potentiates by 50% the L-dopa effects” value with mice [3] is given as “about 20 mg/kg”. Further, the “DL50 dose which kills 50% of mice” value in the data set on mice [4] is “about 75 mg/kg”. The “Relative power to inhibit the uptake of 14C-5HT” value in the data set with serotonine (5HT) uptake [5] is recorded as “+”.
